Source: patent US20200064357A1, “METHODS FOR DETERMINING AND MONITORING GASTROINTESTINAL INFLAMMATION” (Protagonist Therapeutics, Inc., priority 2016, published 2020)

What was measured:
Type in all cases: in vivo
Sprague-Dawley rats [1] = test: Disease pathology in TNBS-induced rat colitis: colon weight/length, colonic score, histology (Example E4)
Protocol: (§1) In the first model, acute colitis was induced in Sprague-Dawley rats by a single intra-rectal instillation of TNBS followed by efficacy analysis at day seven. The animals were grouped into sham+vehicle (PO TID), TNBS+vehicle (PO TID), anti-IL23p19 antibody (4 mg/kg/day IP, Day −1 and Day 3), and Peptide 993 treatment at 9, 28, or 61 mg/kg/day (PO TID+in drinking water). Sham indicates animals not treated with TNBS.
Following treatment, weight and length were determined from entire colon; colonic score was evaluated as sum of adhesion (0-2), stricture (0-3), ulcer (0-5), and colon wall thickness (0-2); histology was evaluated by a pathologist as sum of mucosal/submucosal inflammation (0-5), transmural inflammation (0-5), erosion (0-5), and gland loss (0-5). Values shown as mean±SD (FIGS. 9A-9C). Statistical significance was assessed by One-way ANOVA with post-hoc Dunnett's vs. Vehicle control: **p≤0.01; ***p≤0.001; ****p≤0.0001; ns, not significant.

Sprague-Dawley rats [2] = test: Distal colon markers in TNBS-induced rat colitis: MPO, IL-17A, IL-22 by ELISA, pStat3 by IHC (Example E4)
Protocol: as §1
In addition, myeloperoxidase (MPO), IL-17A, and IL-22 detected from sampled tissue were quantified by enzyme-linked immunosorbent assay (ELISA), and the results are shown in FIGS. 10A-10C. The percentage of phosphorylated Signal Transducer and Activator of Transcription 3 (Stat3) was normalized to the area of the distal colon quantified by immuno-histochemistry (IHC) (FIG. 10D), and the micrographs shown in FIG. 10E are representative images from each indicated group for IHC analysis of pStat3 expression. Values shown as mean±SD. Statistical significance was assessed by One-way ANOVA with post-hoc Dunnett's vs. Vehicle control: *p≤0.05; **p≤0.01; ***p≤0.001; ****p≤0.0001; ns, not significant.
For the pSTAT3 assays, colon tissue samples were processed routinely, sectioned at approximately 3-5 microns, fixed in 10% neutral buffered formaldehyde, processed in paraffin, and immunolabeled with an anti-pSTAT3 primary antibody that binds STAT3 phosphorylated at Tyrosine 705 (Abcam, Cat. No. ab76315 PUR). pSTAT3 immunolabel as a percentage of total areas was measured using Visiopharm© image analysis software. Image analysis involved outlining the colon tissue as a region of interest (ROI), then an automated thresholding method was utilized for the classification of the pSTAT3 positive immunolabel. After classification, the total tissue area within the ROI was calculated, along with the count of pSTAT3 positive cells and the area (in microns) of the pSTAT3 positive cells. Lastly, the pSTAT3 immunolabel percentage of the total tissue area was calculated.
The details of the pSTAT3 Image Analysis Protocol were as follows:
1. ROI • a. Tissue was outlined, and non-colon tissues were excluded.
2. Pre-processing • a. Image was converted into grayscale-pixel values processed to be 0-255 • b. Grayscale image was filtered into two channels: • i. The DAB (or pSTAT3 positive) channel with pixels associated with the brown DAB staining; and • ii. The hematoxylin channel with pixels associated with the tissue area not stained with DAB (includes all tissue area and background staining).
3. Analysis & Classification • a. Algorithm using a “threshold” method was used to classify the tissue area within the ROI. • i. Threshold of the DAB channel was set to classify the positive pSTAT3 stained cells as any/all pixels (from the DAB channel of the pre-processed image) with values between 0-135. A green label was applied to these positively classified cells. • 1. Pixels with values outside the threshold of 0-135 were considered to be part of the tissue area (within the ROI). • b. […]
4. […] The total tissue area (within the ROI) was calculated-unit was in microns. • b. The total pSTAT3 positive area was calculated-unit is in microns. • c. The “count” of pSTAT3 positive cells was calculated. • d. The fraction of pSTAT3 positive cells was calculated by dividing the pSTAT3 positive area by the total tissue area-unit was in microns. • e. The nuclear density per square millimeter was calculated, simply to change the units from microns to square millimeter.

Sprague-Dawley rats [3] = test: CLDN8 gene expression and colonic score in TNBS-induced rat colitis (Example E5)
Protocol: The claudin family of proteins are components of the tight junction complex. Through expression analysis and colonic scoring, claudins were analyzed as biomarkers for IBD disease severity. […] CLDN8 gene expression was analyzed in a TNBS-induced rat model of […] following the protocols described in Example E1.

Sprague-Dawley rats [4] = test: miR-223-3p expression in distal colon and serum, TNBS rat colitis model (Example E3); settings: 31 mg/kg/day, vs vehicle group
Protocol: Animals from the sham group (without TNBS exposure), the vehicle group (exposed to TNBS and treated with vehicle only) and the group treated with Peptide 993 (exposed to TNBS and treated with Peptide 993 at 31 mg/kg/day) were subjected for gene expression and miroRNA analysis
For extraction of microRNA from distal colon homogenate, the RNeasy Plus Mini Kit and the RNeasy MinElute Cleanup Kit (Qiagen) were used. For extraction of microRNA from serum, miRNeasy Serum/Plasma Kit (Qiagen) was used. To verify uniformity of microRNA extraction, a synthetic microRNA cel-miR-39-3p, at a fixed concentration, was spiked into both distal colon homogenates and serum samples. The microRNAs purified from distal colon and serum was used in the Advanced miRNA cDNA Synthesis Kit (Applied Biosystems) to obtain cDNA templates for the quantative real time PCR. The expression of miR-223-3p, a microRNA known to negatively regulate CLDN8 gene expression, was measured using TaqMan Advanced miRNA assay (Applied Biosystems). The endogenous control miR-16-5p was used for normalization in the distal colon, and the endogenous control miR-24-3p was used for normalization in the serum. Relative expression of miR-223-3p was calculated using the normalized Ct values. […]

[5] = TNBS rats, day seven, 9, 28 or 61 mg/kg/day PO TID + in drinking water, vs vehicle
[6] = acute TNBS-induced rat colitis model, oral treatment
[7] = TNBS rats, oral treatment, ELISA

For CC(=O)NC(CCCNC(=N)N)C(=O)NC1CCSCC(C(=O)NC(Cc2ccc(OCCN)cc2)C(=O)NC(Cc2ccc3ccccc3c2)C(=O)NC2(C(=O)NC(CCC(=O)O)C(=O)NC(CC(N)=O)C(=O)NC(CC(N)=O)C(N)=O)CCOCC2)NC(=O)C(CCC(N)=O)NC(=O)C(Cc2c[nH]c3ccccc23)NC(=O)C(C(C)O)NC(=O)C(CCC(N)=O)NC1=O (centres unmarked) [Peptide 993, Ac-[(D)-Arg]-cyclo[[Abu]-QTWQC]-[Phe[4-(2-aminoethoxy)]]-[2-Nal]-[4-amino-4-carboxy-tetrahydropyran]-ENN-NH2], the colon weight-to-length ratio (Sprague-Dawley rats [1]; [5]) was “significant and dose-dependent reduction”, the “histopathological changes in the colon” value (Sprague-Dawley rats [1]; [5]) was “normalization” and the “macroscopic changes in the colon (colonic score)” value (Sprague-Dawley rats [1]; [5]) was “normalization”. For the same compound, the “activity compared with neutralizing anti-IL-23p19 monoclonal antibody (4 mg/kg/day IP)” value (Sprague-Dawley rats [1]; [6]) was “comparable”, the disease parameters (Sprague-Dawley rats [1]; [6]) was “significant and dose-dependent attenuation” and the “disease-related and IL-23-directed markers in the distal colons (MPO, IL-17A, IL-22, pStat3)” value (Sprague-Dawley rats [2]; TNBS rats, 9, 28 or 61 mg/kg/day oral, vs vehicle) was “significant and dose-dependent reduction”. For the same compound, the “colonic levels of MPO” value (Sprague-Dawley rats [2]; [7]) was “decreased”, the “levels of IL-17A, distal colon” value (Sprague-Dawley rats [2]; [7]) was “significantly reduced” and the “levels of IL-22, distal colon” value (Sprague-Dawley rats [2]; [7]) was “significantly reduced”. For the same compound, the “levels of pStat3, distal colon” value (Sprague-Dawley rats [2]; TNBS rats, oral treatment, IHC, percentage of area) was “restored to control levels”, the “levels of CLDN8 expression, distal colon” value (Sprague-Dawley rats [3]; vs vehicle control-treated) was “restored levels of CLDN8 expression above vehicle control-treated subjects” and the “colonic score (0-12)” value (Sprague-Dawley rats [3]; vs vehicle treated animals) was “reduced”. The “miR-223-3p expression in the distal colon” value (Sprague-Dawley rats [4]; normalized to miR-16-5p) was “not statistically significant, however there was a marked reduction in the average expression of the group” and the “miR-223-3p expression in serum” value (Sprague-Dawley rats [4]; normalized to miR-24-3p) was “no apparent change”.
